This is an account of results in patent US11214803B2, “Modulators of YAP1 expression” (Ionis Pharmaceuticals, Inc., priority 2019, dated 2022).

Series [1] relates to Yap1 mRNA. Kind of series: Dose-dependent inhibition of human Yap1 in A-431 cells (Example 8, 10,000 cells per well, RTS4814). The class given is cell-based. The settings on record: for % UTC (Yap1 mRNA) / IC50: A-431 cells; for Yap1 mRNA, % UTC: A-431 cells, 10,000 cells per well. The gist of the method: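 Yap1 mRNA, normalized to RIBOGREEN total RNA and expressed as % untreated control, was read with RTS4814 about 48 h after free-uptake oligonucleotide treatment of A-431 cells at 10,000 cells/well. IC50 derived by linear regression of log/linear data.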

Series [2] concerns Yap1 mRNA. Description: Antisense inhibition of human Yap1 in A-431 cells by cEt gapmers, single dose (Example 3, RTS36584). The settings on record: Yap1 mRNA as percent of untreated control. The format is cell-based. The gist of the method: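 Values are % untreated control: Yap1 mRNA by quantitative RT-PCR (RTS36584), normalized to total RNA by RiboGreen. Before RNA isolation, 5,000 A-431 cells per well were exposed ~48 h to 2,000 nM 16-mer cEt gapmer, delivered without transfection reagent.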

The mark [3] stands for this setting: Table 35, 3-10-3 cEt gapmers targeting SEQ ID NO: 1 and 2, single dose.
[4] abbreviates: 31.3 nM, free uptake, approximately 48 hours, RTS4814.
The mark [5] stands for this setting: 125.0 nM, free uptake, approximately 48 hours, RTS4814.
Where [6] appears, read: 500.0 nM, free uptake, approximately 48 hours, RTS4814.
The mark [7] stands for this setting: 2000.00 nM, free uptake, approximately 48 hours, RTS4814.
[8] abbreviates: free uptake, approximately 48 hours, RTS4814, linear regression on log/linear plot.
[9] abbreviates: Table 28, 3-10-3 cEt gapmers targeting SEQ ID NO.: 1, and 2.

Strand notation (5' to 3'): a small letter for the sugar, then the base; units joined by * are phosphorothioate-linked, units joined directly phosphodiester-linked; [ ] holds rarer units or linkages, { } end groups; capitals alone tell only the bases. k = constrained ethyl (cEt); [5mC] = 5-methylcytosine; d = 2'-deoxy (DNA)

Usually IC50 stands for the concentration needed to halve the response being measured. High values mean a need for much substance, low ones inhibition by little substance. Consider “1074229 (antisense kG*kA*kA*dG*dA*d[5mC]*dT*dG*dT*d[5mC]*dG*dA*dA*kG*kA*kT) [compound 1074229]”, for which the “% UTC (Yap1 mRNA)” value was determined as 58 % UTC in series [1] (31.3 nM), 24 % UTC in series [1] (125.0 nM), 9 % UTC in series [1] (500.0 nM) and 5 % UTC in series [1] (2000.00 nM). The IC50 in series [1] (Yap1 mRNA) was below 20 nM. The “YAP1 (% UTC)” value in series [2] (setting [3]) is listed as 5 % UTC.
As to “1075893 (antisense k[5mC]*kG*kT*dG*dA*dA*dA*dA*dA*dG*dA*dT*dG*kT*kG*kG) [compound 1075893]”, the “% UTC (Yap1 mRNA)” value in series [1] (31.3 nM) was found to be 80 % UTC; in series [1] (125.0 nM), 29 % UTC; in series [1] (500.0 nM), 11 % UTC; in series [1] (2000.00 nM) it was 8 % UTC. This substance also came in with an IC50 in series [1] (Yap1 mRNA) of 100 nM. For the same substance, in series [2] (setting [3]), the “YAP1 (% UTC)” value was 7 % UTC.
Consider “1074607 (DNA kA*kA*kG*dG*dT*dA*dT*dA*dA*dT*d[5mC]*dA*dT*kG*kA*kT) [compound 1074607]”, for which the “Yap1 mRNA, % UTC” value worked out at 45 % UTC in series [1] (setting [4]), 22 % UTC in series [1] (setting [5]), 10 % UTC in series [1] (setting [6]) and 5 % UTC in series [1] (setting [7]). This substance gave an IC50 in series [1] (setting [8]) below 20 nM. Besides, in series [2] (Table 29, 3-10-3 cEt gapmers targeting SEQ ID NO.: 1, and 2), the “YAP1 (% UTC)” value was found to be 4 % UTC.
Turning to “1075246 (kG*kA*kT*dA*dA*d[5mC]*dT*dA*dG*dT*dA*dA*d[5mC]*k[5mC]*kG*kT; antisense) [compound 1075246]”, the “Yap1 mRNA, % UTC” value in series [1] (setting [4]) is 70 % UTC; in series [1] (setting [5]), 34 % UTC; in series [1] (setting [6]), 12 % UTC; in series [1] (setting [7]), 6 % UTC. Further, half-maximal inhibition in series [1] (setting [8]) (IC50) was put at 100 nM. For the same substance, in series [2] (setting [9]), the “YAP1 (% UTC)” value is on record as 6 % UTC.
Consider “1074318 (antisense kG*kG*kA*dG*dA*dA*dT*dT*dT*dG*d[5mC]*dT*dG*kT*kG*k[5mC]) [compound 1074318]”, for which the “Yap1 mRNA, % UTC” value in series [1] (setting [4]) worked out at 48 % UTC; in series [1] (setting [5]), 12 % UTC; in series [1] (setting [6]), 6 % UTC; in series [1] (setting [7]) it was 4 % UTC. The IC50 in series [1] (setting [8]) is below 20 nM. Also, in series [2] (setting [9]), the “YAP1 (% UTC)” value is 4 % UTC.
Take “1076340 (antisense kT*kA*kA*dT*dA*dT*d[5mC]*d[5mC]*dT*d[5mC]*dA*dT*d[5mC]*kA*kG*k[5mC]) [compound 1076340]”: the “% UTC (Yap1 mRNA)” value in series [1] (31.3 nM) was 79 % UTC; in series [1] (125.0 nM), 42 % UTC; in series [1] (500.0 nM), 17 % UTC; in series [1] (2000.00 nM), 11 % UTC. The substance also registered an IC50 in series [1] (Yap1 mRNA) of 100 nM. The “YAP1 (% UTC)” value in series [2] (Table 34, 3-10-3 cEt gapmers targeting SEQ ID NO: 1 and 2, single dose) is given as 8 % UTC.
Take “1074453 (kG*kT*kG*dA*d[5mC]*dT*dA*dA*dT*dG*dA*dT*dA*kG*k[5mC]*kA; antisense) [compound 1074453]”: the “% UTC (Yap1 mRNA)” value was determined as 51 % UTC in series [1] (31.3 nM), 18 % UTC in series [1] (125.0 nM), 9 % UTC in series [1] (500.0 nM) and 5 % UTC in series [1] (2000.00 nM). This substance also came in with an IC50 in series [1] (Yap1 mRNA) below 20 nM. Further, the “YAP1 (% UTC)” value in series [2] (setting [3]) is 4 % UTC.
Regarding “1075061 (antisense k[5mC]*k[5mC]*kT*dT*dA*dT*dA*d[5mC]*dT*dT*dT*dT*dA*kG*k[5mC]*k[5mC]) [compound 1075061]”, the “% UTC (Yap1 mRNA)” value in series [1] (31.3 nM) was determined as 58 % UTC; in series [1] (125.0 nM), 23 % UTC; in series [1] (500.0 nM), 9 % UTC; in series [1] (2000.00 nM), 6 % UTC. Besides, the IC50 in series [1] (Yap1 mRNA) was below 20 nM. Further, in series [2] (setting [3]), the “YAP1 (% UTC)” value was 5 % UTC.
On to “1075701 (kA*kA*kT*dT*dA*d[5mC]*dT*dA*dG*dA*dG*dG*d[5mC]*kT*kT*k[5mC]; antisense) [compound 1075701]”, for which the “% UTC (Yap1 mRNA)” value in series [1] (31.3 nM) is 84 % UTC; in series [1] (125.0 nM), 34 % UTC; in series [1] (500.0 nM) it was 11 % UTC; in series [1] (2000.00 nM), 6 % UTC. The substance also showed an IC50 in series [1] (Yap1 mRNA) of 100 nM. Also, the “YAP1 (% UTC)” value in series [2] (setting [3]) turned out to be 3 % UTC.
